Laboratory results as given in patent US6914045B2, “Glycopeptide antibiotics” (Wyeth Holdings Corporation, priority 2001, dated 2005).
≈ marks a conversion by molar mass, not a printed value.

Legend:
Experiment in all cases: in vitro antibacterial evaluation, MIC by broth dilution
Format in all cases: cell-based
[1] = system: Enterococcus sp.; conditions: broth dilution, 18 hours at 35° C.
Method in brief: (§1)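 Broth dilution per NCCLS standard M7-A2 in Muller-Hinton II […], with an inoculum of 5×10^5 CFU/mL and antibiotic spanning 64-0.06 μg/mL. The MIC is the lowest concentration that inhibits growth of the organism.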

[2] = system: Escherichia coli; conditions: 18 hours at 35° C.
Method in brief: as §1

[3] = system: Streptococcus sp.; conditions: broth dilution, 18 hours at 35° C.
Method in brief: as §1

[4] = system: Staphylococcus sp.; conditions: broth dilution, 18 hours at 35° C.
Method in brief: as §1

SMILES: CCCCOC(=O)CCC1OCC2OC(OC3C(CO)OC(Oc4ccc(CC5NC(=O)C(C(C)c6ccccc6)NC(=O)CNC(=O)C(CO)NC(=O)C(C(O)C6CNC(=N)N6C6OC(CO)C(O)C(O)C6O)NC(=O)C(C(O)C6CNC(=N)N6)NC5=O)cc4)C(O)C3O)C(O)C(O)C2O1 (stereo not drawn) [Example 114, Cyclo[glycyl-β-methylphenylalanyl-O-[4-O-[4,6-O-(4-butoxy-4-oxobutylidene)hexopyranosyl]-hexopyranosyl]tyrosyl-3-(2-iminoimidazolidin-4-yl)seryl-3-(3-hexopyranosyl-2-iminoimidazolidin-4-yl)serylseryl]]
- MIC Enterococcus avium (GC 4558) ([1]; Enterococcus avium (GC 4558)): 8 µg/mL (≈ 5.57 µM)
- MIC Enterococcus faecalis (ATCC 29212) ([1]; Enterococcus faecalis (ATCC 29212)): 4 µg/mL (≈ 2.79 µM)
- MIC Enterococcus faecalis (GC 2242) ([1]; Enterococcus faecalis (GC 2242)): 4 µg/mL (≈ 2.79 µM)
- MIC Enterococcus faecalis (GC 2691) ([1]; Enterococcus faecalis (GC 2691)): 4 µg/mL (≈ 2.79 µM)
- MIC Enterococcus faecalis (GC 3059) ([1]; Enterococcus faecalis (GC 3059)): 8 µg/mL (≈ 5.57 µM)
- MIC Enterococcus faecalis (GC 4552) ([1]; Enterococcus faecalis (GC 4552)): 4 µg/mL (≈ 2.79 µM)
- MIC Enterococcus faecalis (GC 4553) ([1]; Enterococcus faecalis (GC 4553)): 8 µg/mL (≈ 5.57 µM)
- MIC Enterococcus faecalis (GC 4554) ([1]; Enterococcus faecalis (GC 4554)): 4 µg/mL (≈ 2.79 µM)
- MIC Enterococcus faecalis (GC 6189) ([1]; Enterococcus faecalis (GC 6189)): 4 µg/mL (≈ 2.79 µM)
- MIC Enterococcus faecium (GC 2243) ([1]; Enterococcus faecium (GC 2243)): 4 µg/mL (≈ 2.79 µM)
- MIC Enterococcus faecium (GC 4556) ([1]; Enterococcus faecium (GC 4556)): 4 µg/mL (≈ 2.79 µM)
- MIC Enterococcus faecium (GC 4557) ([1]; Enterococcus faecium (GC 4557)): 2 µg/mL (≈ 1.39 µM)
- MIC Enterococcus faecalis (ATCC 29212) ([1]; strain ATCC 29212): 4 µg/mL (≈ 2.79 µM)
- MIC Enterococcus faecalis (GC 2242) ([1]; strain GC 2242): 4 µg/mL (≈ 2.79 µM)
- MIC Enterococcus faecium (GC 2243) ([1]; strain GC 2243): 4 µg/mL (≈ 2.79 µM)
- MIC Enterococcus faecalis (GC 2691) ([1]; strain GC 2691): 4 µg/mL (≈ 2.79 µM)
- MIC Enterococcus faecalis (GC 3059) ([1]; strain GC 3059): 8 µg/mL (≈ 5.57 µM)
- MIC Enterococcus faecalis (GC 4552) ([1]; strain GC 4552): 4 µg/mL (≈ 2.79 µM)
- MIC Enterococcus faecalis (GC 4553) ([1]; strain GC 4553): 8 µg/mL (≈ 5.57 µM)
- MIC Enterococcus faecalis (GC 4554) ([1]; strain GC 4554): 4 µg/mL (≈ 2.79 µM)
- MIC Enterococcus faecium (GC 4556) ([1]; strain GC 4556): 4 µg/mL (≈ 2.79 µM)
- MIC Enterococcus faecium (GC 4557) ([1]; strain GC 4557): 2 µg/mL (≈ 1.39 µM)
- MIC Enterococcus avium (GC 4558) ([1]; strain GC 4558): 8 µg/mL (≈ 5.57 µM)
- MIC Enterococcus faecalis (GC 6189) ([1]; strain GC 6189): 4 µg/mL (≈ 2.79 µM)
- MIC Escherichia coli (ATCC 25922) ([2]; strain ATCC 25922): 64 µg/mL (≈ 44.6 µM)
- MIC Escherichia coli (GC 4559) ([2]; strain GC 4559): 64 µg/mL (≈ 44.6 µM)
- MIC Escherichia coli (GC 4560) ([2]; strain GC 4560): 1 µg/mL (≈ 0.697 µM)
- MIC Streptococcus agalactiae (GC 4564) ([3]; Streptococcus agalactiae (GC 4564)): 0.5 µg/mL (≈ 0.348 µM)
- MIC Streptococcus pneumoniae (ATCC 6301) ([3]; Streptococcus pneumoniae (ATCC 6301)): 0.12 µg/mL (≈ 0.0836 µM)
- MIC Streptococcus pneumoniae (GC 1894) ([3]; Streptococcus pneumoniae (GC 1894)): <0.06 µg/mL
- MIC Streptococcus pneumoniae (GC 4565) ([3]; Streptococcus pneumoniae (GC 4565)): 0.25 µg/mL (≈ 0.174 µM)
- MIC Streptococcus pyogenes (GC 4563) ([3]; Streptococcus pyogenes (GC 4563)): 0.5 µg/mL (≈ 0.348 µM)
- MIC Streptococcus pneumoniae (ATCC 6301) ([3]; strain ATCC 6301): 0.12 µg/mL (≈ 0.0836 µM)
- MIC Streptococcus pneumoniae (GC 1894) ([3]; strain GC 1894): <0.06 µg/mL
- MIC Streptococcus pyogenes (GC 4563) ([3]; strain GC 4563): 0.5 µg/mL (≈ 0.348 µM)
- MIC Streptococcus agalactiae (GC 4564) ([3]; strain GC 4564): 0.5 µg/mL (≈ 0.348 µM)
- MIC Streptococcus pneumoniae (GC 4565) ([3]; strain GC 4565): 0.25 µg/mL (≈ 0.174 µM)
- MIC Coagulase Negative Staphylococcus (GC 4547) [4]: 2 µg/mL (≈ 1.39 µM)
- MIC Coagulase Negative Staphylococcus (GC 4548) [4]: 1 µg/mL (≈ 0.697 µM)
- MIC Coagulase Negative Staphylococcus (GC 4549) [4]: 2 µg/mL (≈ 1.39 µM)
- MIC Coagulase Negative Staphylococcus (GC 4551) [4]: 2 µg/mL (≈ 1.39 µM)
- MIC Coagulase Negative Staphylococcus (GC 6257) [4]: 1 µg/mL (≈ 0.697 µM)
- MIC Staphylococcus aureus (ATCC 29213) [4]: 2 µg/mL (≈ 1.39 µM)
- MIC Staphylococcus aureus (GC 1131) [4]: 2 µg/mL (≈ 1.39 µM)
- MIC Staphylococcus aureus (GC 3051) [4]: 2 µg/mL (≈ 1.39 µM)
- MIC Staphylococcus aureus (GC 3053) [4]: 2 µg/mL (≈ 1.39 µM)
- MIC Staphylococcus aureus (GC 4541) [4]: 2 µg/mL (≈ 1.39 µM)
- MIC Staphylococcus aureus (GC 4542) [4]: 1 µg/mL (≈ 0.697 µM)
- MIC Staphylococcus aureus (GC 4544) [4]: 2 µg/mL (≈ 1.39 µM)
- MIC Staphylococcus aureus (GC 4545) [4]: 2 µg/mL (≈ 1.39 µM)
- MIC Staphylococcus aureus-SMITH (GC 4543) [4]: 2 µg/mL (≈ 1.39 µM)
- MIC Staphylococcus haemolyticus (GC 4546) [4]: 1 µg/mL (≈ 0.697 µM)
- MIC Staphylococcus aureus (GC 1131) ([4]; inoculum 5×10^5 CFU/mL, strain GC 1131): 2 µg/mL (≈ 1.39 µM)
- MIC Staphylococcus aureus (ATCC 29213) ([4]; strain ATCC 29213): 2 µg/mL (≈ 1.39 µM)
- MIC Staphylococcus aureus (GC 3051) ([4]; strain GC 3051): 2 µg/mL (≈ 1.39 µM)
- MIC Staphylococcus aureus (GC 3053) ([4]; strain GC 3053): 2 µg/mL (≈ 1.39 µM)
- MIC Staphylococcus aureus (GC 4541) ([4]; strain GC 4541): 2 µg/mL (≈ 1.39 µM)
- MIC Staphylococcus aureus (GC 4542) ([4]; strain GC 4542): 1 µg/mL (≈ 0.697 µM)
- MIC Staphylococcus aureus (GC 4544) ([4]; strain GC 4544): 2 µg/mL (≈ 1.39 µM)
- MIC Staphylococcus aureus (GC 4545) ([4]; strain GC 4545): 2 µg/mL (≈ 1.39 µM)
- MIC Staphylococcus haemolyticus (GC 4546) ([4]; strain GC 4546): 1 µg/mL (≈ 0.697 µM)
- MIC Coagulase Negative Staphylococcus (GC 4547) ([4]; strain GC 4547): 2 µg/mL (≈ 1.39 µM)
- MIC Coagulase Negative Staphylococcus (GC 4548) ([4]; strain GC 4548): 1 µg/mL (≈ 0.697 µM)
- MIC Coagulase Negative Staphylococcus (GC 4549) ([4]; strain GC 4549): 2 µg/mL (≈ 1.39 µM)
- MIC Coagulase Negative Staphylococcus (GC 4551) ([4]; strain GC 4551): 2 µg/mL (≈ 1.39 µM)
- MIC Coagulase Negative Staphylococcus (GC 6257) ([4]; strain GC 6257): 1 µg/mL (≈ 0.697 µM)
- MIC Staphylococcus aureus-SMITH (GC 4543) ([4]; strain SMITH GC 4543): 2 µg/mL (≈ 1.39 µM)
